Laboratory results taken from ChEMBL document CHEMBL1629580, “Sec- and Tat-dependent translocation of beta-lactamases across the Escherichia coli inner membrane” (2009).
≈ marks a conversion by molar mass, not a printed value.

What follows are compounds tested on Escherichia coli (assay: Antimicrobial activity against Escherichia coli CU164A harboring empty plasmid by liquid microdilution method).
Format: functional
For `CC(C)(O/N=C(\C(=O)N[C@@H]1C(=O)N2C(C(=O)[O-])=C(C[n+]3ccccc3)CS[C@H]12)c1csc(N)n1)C(=O)O` [CEFTAZIDIME], the MIC was no more than 0.06 µg/mL.

These compounds were tested on Escherichia coli (assay: Antimicrobial activity against translocase tatC-deficient Escherichia coli B1LK0A expressing beta-lactamase TEM-1 by liquid microdilution method).
Format: functional
`CC(C)(O/N=C(\C(=O)N[C@@H]1C(=O)N2C(C(=O)[O-])=C(C[n+]3ccccc3)CS[C@H]12)c1csc(N)n1)C(=O)O` [CEFTAZIDIME] was tested, and the MIC was no more than 0.06 µg/mL.

Each compound was assayed on Escherichia coli (assay: Antimicrobial activity against Escherichia coli CU164A harboring beta-lactamase L2 by liquid microdilution method).
Compound `CC(C)(O/N=C(\C(=O)N[C@@H]1C(=O)N2C(C(=O)[O-])=C(C[n+]3ccccc3)CS[C@H]12)c1csc(N)n1)C(=O)O` [CEFTAZIDIME] has an MIC of 4 µg/mL (≈ 7.32 µM).

These compounds were tested on Escherichia coli (assay: Antimicrobial activity against Escherichia coli CU164A harboring beta-lactamase L1 by liquid microdilution method).
Format: functional
With `CC(C)(O/N=C(\C(=O)N[C@@H]1C(=O)N2C(C(=O)[O-])=C(C[n+]3ccccc3)CS[C@H]12)c1csc(N)n1)C(=O)O` [CEFTAZIDIME] the MIC was 8 µg/mL (≈ 14.6 µM).

Each compound was assayed on Escherichia coli (assay: Antimicrobial activity against Escherichia coli MC4100A harboring beta-lactamase L1 by liquid microdilution method).
Format: functional
`CC(C)(O/N=C(\C(=O)N[C@@H]1C(=O)N2C(C(=O)[O-])=C(C[n+]3ccccc3)CS[C@H]12)c1csc(N)n1)C(=O)O` [CEFTAZIDIME] showed an MIC of 8 µg/mL (≈ 14.6 µM).

These compounds were tested on Escherichia coli (assay: Antimicrobial activity against mreB-deficient Escherichia coli YLS-3 expressing beta-lactamase TEM-1 by liquid microdilution method).
Format: functional
Compound `CC(C)(O/N=C(\C(=O)N[C@@H]1C(=O)N2C(C(=O)[O-])=C(C[n+]3ccccc3)CS[C@H]12)c1csc(N)n1)C(=O)O` [CEFTAZIDIME] has an MIC of no more than 0.06 µg/mL.

The compounds below were run on Escherichia coli (assay: Antimicrobial activity against mreB-deficient Escherichia coli YLS-3 harboring beta-lactamase L2 by liquid microdilution method).
Format: functional
For `CC(C)(O/N=C(\C(=O)N[C@@H]1C(=O)N2C(C(=O)[O-])=C(C[n+]3ccccc3)CS[C@H]12)c1csc(N)n1)C(=O)O` [CEFTAZIDIME], the MIC was 0.06 µg/mL (≈ 0.11 µM).

The compounds below were run on Escherichia coli (assay: Antimicrobial activity against translocase tatC-deficient Escherichia coli B1LK0A harboring beta-lactamase CTX-M-14 by liquid microdilution method).
Format: functional
`CC(C)(O/N=C(\C(=O)N[C@@H]1C(=O)N2C(C(=O)[O-])=C(C[n+]3ccccc3)CS[C@H]12)c1csc(N)n1)C(=O)O` [CEFTAZIDIME] was tested, and the MIC was 1 µg/mL (≈ 1.83 µM).

The compounds below were run on Escherichia coli (assay: Antimicrobial activity against Escherichia coli CU164A harboring beta-lactamase CTX-M-14 by liquid microdilution method).
Format: functional
Work on `CC(C)(O/N=C(\C(=O)N[C@@H]1C(=O)N2C(C(=O)[O-])=C(C[n+]3ccccc3)CS[C@H]12)c1csc(N)n1)C(=O)O` [CEFTAZIDIME] yielded an MIC of 1 µg/mL (≈ 1.83 µM).

Each compound was assayed on Escherichia coli (assay: Antimicrobial activity against Escherichia coli CU164A expressing beta-lactamase TEM-1 by liquid microdilution method).
Format: functional
Work on `CC(C)(O/N=C(\C(=O)N[C@@H]1C(=O)N2C(C(=O)[O-])=C(C[n+]3ccccc3)CS[C@H]12)c1csc(N)n1)C(=O)O` [CEFTAZIDIME] yielded an MIC of no more than 0.06 µg/mL.

The compounds below were run on Escherichia coli (assay: Antimicrobial activity against translocase tatC-deficient Escherichia coli B1LK0A harboring beta-lactamase AmpC by liquid microdilution method).
Compound `CC(C)(O/N=C(\C(=O)N[C@@H]1C(=O)N2C(C(=O)[O-])=C(C[n+]3ccccc3)CS[C@H]12)c1csc(N)n1)C(=O)O` [CEFTAZIDIME] has an MIC of 0.25 µg/mL (≈ 0.457 µM).

What follows are compounds tested on Escherichia coli (assay: Antimicrobial activity against translocase tatC-deficient Escherichia coli B1LK0A harboring beta-lactamase L2 by liquid microdilution method).
Format: functional
Compound `CC(C)(O/N=C(\C(=O)N[C@@H]1C(=O)N2C(C(=O)[O-])=C(C[n+]3ccccc3)CS[C@H]12)c1csc(N)n1)C(=O)O` [CEFTAZIDIME] has an MIC of no more than 0.06 µg/mL.

Each compound was assayed on Escherichia coli (assay: Antimicrobial activity against Escherichia coli MC4100A harboring beta-lactamase L2 by liquid microdilution method).
For `CC(C)(O/N=C(\C(=O)N[C@@H]1C(=O)N2C(C(=O)[O-])=C(C[n+]3ccccc3)CS[C@H]12)c1csc(N)n1)C(=O)O` [CEFTAZIDIME], the MIC was 4 µg/mL (≈ 7.32 µM).

The compounds below were run on Escherichia coli (assay: Antimicrobial activity against Escherichia coli MC4100A harboring beta-lactamase AmpC by liquid microdilution method).
Format: functional
Work on `CC(C)(O/N=C(\C(=O)N[C@@H]1C(=O)N2C(C(=O)[O-])=C(C[n+]3ccccc3)CS[C@H]12)c1csc(N)n1)C(=O)O` [CEFTAZIDIME] yielded an MIC of 0.25 µg/mL (≈ 0.457 µM).

The compounds below were run on Escherichia coli (assay: Antimicrobial activity against Escherichia coli MC4100A harboring beta-lactamase CTX-M-14 by liquid microdilution method).
Format: functional
With `CC(C)(O/N=C(\C(=O)N[C@@H]1C(=O)N2C(C(=O)[O-])=C(C[n+]3ccccc3)CS[C@H]12)c1csc(N)n1)C(=O)O` [CEFTAZIDIME] the MIC was 1 µg/mL (≈ 1.83 µM).

Each compound was assayed on Escherichia coli (assay: Antimicrobial activity against translocase tatC-deficient Escherichia coli B1LK0A harboring empty plasmid by liquid microdilution method).
Format: functional
`CC(C)(O/N=C(\C(=O)N[C@@H]1C(=O)N2C(C(=O)[O-])=C(C[n+]3ccccc3)CS[C@H]12)c1csc(N)n1)C(=O)O` [CEFTAZIDIME] was tested, and the MIC was no more than 0.06 µg/mL.

Each compound was assayed on Escherichia coli (assay: Antimicrobial activity against mreB-deficient Escherichia coli YLS-3 harboring beta-lactamase L1 by liquid microdilution method).
With `CC(C)(O/N=C(\C(=O)N[C@@H]1C(=O)N2C(C(=O)[O-])=C(C[n+]3ccccc3)CS[C@H]12)c1csc(N)n1)C(=O)O` [CEFTAZIDIME] the MIC was 0.06 µg/mL (≈ 0.11 µM).

Each compound was assayed on Escherichia coli (assay: Antimicrobial activity against Escherichia coli MC4100A expressing beta-lactamase TEM-1 by liquid microdilution method).
Format: functional
For `CC(C)(O/N=C(\C(=O)N[C@@H]1C(=O)N2C(C(=O)[O-])=C(C[n+]3ccccc3)CS[C@H]12)c1csc(N)n1)C(=O)O` [CEFTAZIDIME], the MIC was no more than 0.06 µg/mL.

Each compound was assayed on Escherichia coli (assay: Antimicrobial activity against Escherichia coli CU164A harboring beta-lactamase AmpC by liquid microdilution method).
`CC(C)(O/N=C(\C(=O)N[C@@H]1C(=O)N2C(C(=O)[O-])=C(C[n+]3ccccc3)CS[C@H]12)c1csc(N)n1)C(=O)O` [CEFTAZIDIME] was tested, and the MIC was 0.25 µg/mL (≈ 0.457 µM).

The compounds below were run on Escherichia coli (assay: Antimicrobial activity against mreB-deficient Escherichia coli YLS-3 harboring beta-lactamase AmpC by liquid microdilution method).
Work on `CC(C)(O/N=C(\C(=O)N[C@@H]1C(=O)N2C(C(=O)[O-])=C(C[n+]3ccccc3)CS[C@H]12)c1csc(N)n1)C(=O)O` [CEFTAZIDIME] yielded an MIC of 0.06 µg/mL (≈ 0.11 µM).

What follows are compounds tested on Escherichia coli (assay: Antimicrobial activity against Escherichia coli MC4100A harboring empty plasmid by liquid microdilution method).
Format: functional
Compound `CC(C)(O/N=C(\C(=O)N[C@@H]1C(=O)N2C(C(=O)[O-])=C(C[n+]3ccccc3)CS[C@H]12)c1csc(N)n1)C(=O)O` [CEFTAZIDIME] has an MIC of no more than 0.06 µg/mL.

These compounds were tested on Escherichia coli (assay: Antimicrobial activity against translocase tatC-deficient Escherichia coli B1LK0A harboring beta-lactamase L1 by liquid microdilution method).
Format: functional
`CC(C)(O/N=C(\C(=O)N[C@@H]1C(=O)N2C(C(=O)[O-])=C(C[n+]3ccccc3)CS[C@H]12)c1csc(N)n1)C(=O)O` [CEFTAZIDIME] showed an MIC of 8 µg/mL (≈ 14.6 µM).

Each compound was assayed on Escherichia coli (assay: Antimicrobial activity against mreB-deficient Escherichia coli YLS-3 harboring empty plasmid by liquid microdilution method).
Format: functional
With `CC(C)(O/N=C(\C(=O)N[C@@H]1C(=O)N2C(C(=O)[O-])=C(C[n+]3ccccc3)CS[C@H]12)c1csc(N)n1)C(=O)O` [CEFTAZIDIME] the MIC was no more than 0.06 µg/mL.

These compounds were tested on Escherichia coli (assay: Antimicrobial activity against mreB-deficient Escherichia coli YLS-3 harboring beta-lactamase CTX-M-14 by liquid microdilution method).
Format: functional
For `CC(C)(O/N=C(\C(=O)N[C@@H]1C(=O)N2C(C(=O)[O-])=C(C[n+]3ccccc3)CS[C@H]12)c1csc(N)n1)C(=O)O` [CEFTAZIDIME], the MIC was 0.5 µg/mL (≈ 0.915 µM).
